Experimental data as given in US10738028B2, “Spiro three-membered ring, spiro five-membered ring peptide deformylase inhibitor and use thereof in antibacteria and anti-tumor” (priority 2016, dated 2020).
In brackets after ≈: the same amount, converted by molar mass.

Key:
the test strains = assay: MIC against the test strains (strain not given); type: cell-based; conditions: read-out: MIC (azole amide bioisosteres)
Source text: 1. The invention adopts the two-fold agar dilution method recommended by the operating procedure of antimicrobial susceptibility testing set by American Clinical and Laboratory Standards Institute (CLSI) to determine the Minimum Inhibitory Concentration (MIC) of the test samples against the tested strains.

[1] = tested on: HCT-116 colorectal cancer cell line; assay: CCK-8 proliferation inhibition; type: cell-based; conditions: Homo sapiens, HCT-116, 72 h, read-out: HCT116 inhibition rate/%
How it was run: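 Cells were plated overnight at 2000 cells/well, then compound in culture medium was added at a range of final concentrations. After 72 hours in a CO2 incubator, medium was replaced with 1:10 CCK-8 solution for the read-out.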

[2] = tested on: Escherichia coli (including ESBLs, non-ESBLs); assay: MIC, two-fold agar dilution (CLSI), clinical isolates; type: cell-based
How it was run: (§1)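 Following the American Clinical and Laboratory Standards Institute procedure, agar two-fold dilution served to determine minimum inhibitory concentrations.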

[3] = tested on: methicillin-sensitive Staphylococcus epidermidis (MSSE); assay: as above; type: cell-based
How it was run: as §1

[4] = tested on: methicillin-resistant Staphylococcus aureus (MRSA); assay: as above; type: cell-based
How it was run: as §1

[5] = tested on: methicillin-sensitive Staphylococcus aureus (MSSA); assay: as above; type: cell-based
How it was run: as §1

[6] = tested on: Enterococcus faecalis (EFA); assay: as above; type: cell-based
How it was run: as §1

[7] = tested on: methicillin-resistant Staphylococcus epidermidis (MRSE); assay: as above; type: cell-based
How it was run: as §1

[8] = tested on: methemoglobin in blood samples of three healthy volunteers; assay: Toxicity on methemoglobin in vitro (whole blood with S9 and NADPH, absorbance at 630 nm); type: cell-based, human; conditions: 500 μM compound; whole blood + S9 + NADPH; 5 hours at 37° C.
Protocol: Because PDF inhibitors such as LBM415 and GSK1322322 can produce active species such as aromatic hydroxylamine and aromatic hydrazines in metabolic process, and cause human methemoglobinemia. To this end, continuous wavelength method was adopted in this invention to scan the absorption spectrum of blood samples in the wavelength range of 500 to 700 nm in the ultraviolet-visible spectrophotometer, and the contents of methemoglobin in blood samples of three healthy volunteers were calculated, after being effected by the synthesized compounds.
Experimental materials: Nicotinamide adenine dinucleotide phosphate (NADPH) reduction system: glucose-6-disodium phosphate, nicotinamide adenine dinucleoside phosphate and glucose-6-phosphate dehydrogenase (purchased from Shanghai yuanye Bio-Technology Co., Ltd) were added to 1 mL of phosphate buffer solution (PBS, pH 7.4), and the mixture was shaked in a shaker type water bath at 37° C. for 10 min, and then cooled to 0° C. Mixed human hepatocytes fraction S9 was purchased from Xenotech (20 mg S9 protein/1 mL suspension medium). Compounds were prepared to stock solution at a concentration of 50 mM, which was stored at −20° C. for use. Dapsone was used as positive control experimental reagent, which was purchased from Sigma Aldrich. 1% w/v triton X-100 was self-prepared. Blood samples were collected using Vacutainer tubes containing EDTA anticoagulants (BD, Franklin Lakes, USA), which were sampled from three healthy volunteers and used immediately after sampling.
Preparation of incubation system for blood samples and drugs: 250 μL of incubation system was consist of 220 μL of whole blood, 25 μL of S9 (final concentration: 2 mg S9 protein/mL incubation solution), 2.5 μL of NADPH form system (final concentration: 10 mM G-6-P, 1 mM NADP, 7.5 Units/mL) and 2.5 μL of stock solution of a compound (final concentration 500 μM). […] of incubation system was placed in an Eppendorf tube and incubated for 5 hours at 37° C. in water bath.
Determination of the content of methemoglobin: 60 μL of an incubated sample was taken and lysed with 3.0 mL of 1% Triton X-100. The content of methemoglobin (MetHb) was measured by an ultraviolet-visible spectrophotometer, with the Triton X-100 solution used as blank control. A sample was placed in a cuvette, 1 minute later, the spectrums of the sample in the wavelength range from 500 nm to 700 nm were recorded. The sample was added with 2 mg of potassium ferricyanide, and was allowed to stay stationary for 2 minutes for completely oxidization of ferrous iron in the sample, and standard spectrum of methemoglobin with saturated potassium ferricyanide. The percentage of methemoglobin formation (MetHb %) was obtained by the ratio of absorbance at 630 nm. MetHb %=(A′−AB′)/AM′, wherein, A′ was the total absorbance of the sample at 630 nm, AB′ was the base absorbance of the reduced blood in the sample at 630 nm, and AM′ was the absorbance of oxidized blood with saturated potassium ferricyanide at 630 nm.

## CCCC[C@H](CN(O)C=O)C(=O)N1CC2(CC2)C[C@H]1c1nc2ccccc2[nH]1 [Example 10, N—((R)-2-((S)-6-(1H-benzimidazol-2-yl)-5-azaspiro[2.4]heptane-5-carbonyl)hexyl)-N-hydroxyformamide]
The test strains
  MIC: 0.5 to 2 µg/mL (≈ 1.3 to 5.2 µM)
[1]
  inhibition at 30 µM: 10%
[2]; strain ECO+ 14-1
  MIC (anti-bacterial activity): 0.5 µg/mL (≈ 1.3 µM)
[2]; strain ECO+ 14-2
  MIC (anti-bacterial activity): 32 µg/mL (≈ 83.2 µM)
[2]; strain ECO− 14-1
  MIC (anti-bacterial activity): 32 µg/mL (≈ 83.2 µM)
[2]; strain ECO− 14-2
  MIC (anti-bacterial activity): 32 µg/mL (≈ 83.2 µM)
[3]; strain MSSE 14-1
  MIC (anti-bacterial activity): 0.5 µg/mL (≈ 1.3 µM)
[3]; strain MSSE 14-2
  MIC (anti-bacterial activity): 2 µg/mL (≈ 5.2 µM)
[3]; strain MSSE 14-3
  MIC (anti-bacterial activity): 0.5 µg/mL (≈ 1.3 µM)
[3]; strain MSSE 14-4
  MIC (anti-bacterial activity): 2 µg/mL (≈ 5.2 µM)
[4]; strain MRSA 14-1
  MIC (anti-bacterial activity): 1 µg/mL (≈ 2.6 µM)
[4]; strain MRSA 14-2
  MIC (anti-bacterial activity): 2 µg/mL (≈ 5.2 µM)
[4]; strain MRSA 14-4
  MIC (anti-bacterial activity): 2 µg/mL (≈ 5.2 µM)
[4]; strain MRSA 14-5
  MIC (anti-bacterial activity): 0.5 µg/mL (≈ 1.3 µM)
[4]; strain printed MRSA 14-1 (second line of that name, r23, before MRSE 14-2)
  MIC (anti-bacterial activity): 1 µg/mL (≈ 2.6 µM)
[5]; strain MSSA 14-1
  MIC (anti-bacterial activity): 2 µg/mL (≈ 5.2 µM)
[5]; strain MSSA 14-2
  MIC (anti-bacterial activity): 2 µg/mL (≈ 5.2 µM)
[5]; strain MSSA 14-3
  MIC (anti-bacterial activity): 2 µg/mL (≈ 5.2 µM)
[5]; strain MSSA 14-4
  MIC (anti-bacterial activity): 2 µg/mL (≈ 5.2 µM)
[6]; strain EFA 14-1
  MIC (anti-bacterial activity): 8 µg/mL (≈ 20.8 µM)
[6]; strain EFA 14-2
  MIC (anti-bacterial activity): 8 µg/mL (≈ 20.8 µM)
[6]; strain EFA 14-3
  MIC (anti-bacterial activity): 8 µg/mL (≈ 20.8 µM)
[6]; strain EFA 14-5
  MIC (anti-bacterial activity): 64 µg/mL (≈ 166 µM)
[7]; strain MRSE 14-2
  MIC (anti-bacterial activity): 1 µg/mL (≈ 2.6 µM)
[7]; strain MRSE 14-3
  MIC (anti-bacterial activity): 0.5 µg/mL (≈ 1.3 µM)
[7]; strain MRSE 14-4
  MIC (anti-bacterial activity): 1 µg/mL (≈ 2.6 µM)
[8]
  MetHb % (n = 3): 1.12 ± 0.01%
